Laboratory results reported in patent US10435697B2, “Recombinant expression system that senses pathogenic microorganisms” (priority 2014, dated 2019).
Ends that are not written are not given here.

Columns and labels:
[1] = tested on: CqsS/CAI-1 quorum-sensing phosphorelay system of V. cholerae; assay: CAI-1 sensing by two-plasmid system (CqsS, LuxU, LuxO; GFP under pQrr4); type: cell-based, Vibrio cholerae; details: LuxO induced by arabinose
Excerpt: In the test construct the pBAD promoter drives LuxO. […] This is due to the downregulation of pQrr4 promoter by the CqsS cascade originating form V. cholera. In contrast, no alteration of GFP expression was observed when arabinose was present, but CAI-1 was absent. […] The system is inducible by arabinose in order to add an additional level of control.
In the next step, a double plasmid system, with the CqsS (SEQ ID NO 6), LuxU (SEQ ID NO 7) and LuxO (SEQ ID NO 8) genes expressed on one plasmid and GFP (SEQ ID NO) under pQrr4 promoter (SEQ ID NO 19) on another was generated. Thus, this system comprises the CAI-1 sensor module, in which phosphorylated LuxO activates the Qrr4 promoter. In the test construct the pBAD promoter drives LuxO, which is inducible by arabinose.
In other words, the system changes its fluorescence with different concentrations of CAI-1.

[2] = tested on: V. cholerae; details: previously shown (Da Silva 2008; Moghaddam 2012; Yaraksa 2014); cited from earlier work
[3] = tested on: E. coli Top10; assay: Growth curves (OD600) of E. coli Top10 after induced expression of the peptide from a plasmid; type: cell-based, Escherichia coli
Excerpt: To evaluate the activity of Microcin S (mcsS) and Microcin immunity protein (mcsI) in E. coli Top10 cells five different plasmids were constructed (FIG. 10).
Moreover, also the effect of Microcin immunity protein (mcsI) in the presence of Microcin S was studied. For this, the mcsI gene was introduced into the pBbE8K+McsS-YebF-I and pBbE8K+McsS-I plasmids resulting in pBbE8K+McsI+McsS-YebF-II and pBbE8K+McsI+McsS-II, respectively. In these constructs, mcsS expression is controlled by an araC pBAD activator-promoter (SEQ ID NO), rendering Microcin S expression inducible by L-arabinose. In contrast, mcsI expression is constitutively ON when using the rrnB promoter (SEQ ID NO 28).
Furthermore, also the effect of Microcin whole cascade in E. coli Top10 growing in liquid culture with 0.125% arabinose and without arabinose after being transformed with construct 5 of FIG. 12 was studied.
For example, in the case of CM11 (P3) the P3 gene was cloned under the arabinose promoter (pBAD) in the pBbE8K vector resulting in the pBbE8K+P3 plasmid. In other words, P3 expression in this construct is controlled by an araC PBAD activator-promoter, rendering P3 expression inducible by L-arabinose.
In addition, in order to characterize the lysis activity in E. coli, the lysis E7 gene was cloned under the tetracycline promoter (pTet) in the pBbA2C vector resulting in the pBbA2C+E7 plasmid.

[4] = tested on: pathogenic E. coli; details: Yaraksa et al. 2014; cited from earlier work
[5] = tested on: E. coli Nissile; type: cell-based, Escherichia coli; details: LB broth, 18-20 h at 37° C., DMSO control
Description: FIG. 17 MIC of the synthetic peptide CM11 (P3) against E. coli Nissile. […] As a control only DMSO was used.
(§1) Moreover, a minimum inhibitory concentration (MIC) assay was conducted using CM11 (P3). The medium used for the broth microdilution test was LB Broth and the cells were V. cholera A1522-Rugose-GFP and E. coli Nissile strains. Overnight cultures were transferred into 5 ml of LB and were grown at 37° C. for 2-3 h. To approximate the density of 0.5 McFarland standard, this suspension with the inoculum concentration of 108 colony forming units (CFU/ml) was then diluted to 106 CFU/ml with the LB broth. Peptide P3 stock solution of 1000 μg/ml was prepared using DMSO. Serial two-fold dilutions of the peptide (P3) with the following concentration (2-100 μg/ml) were prepared with LB broth and placed in 96-well microtiter plates and the lowest concentration inhibiting visible growth after 18-20 h at 37° C. was recorded as MIC (see FIGS. 16 and 17).

[6] = tested on: V. cholerae (A1522 Rugose-GFP); type: cell-based, Vibrio cholerae; details: LB broth, 18-20 h at 37° C., absorbance and GFP fluorescence monitored, DMSO control
Description: […]. The target cells were effectively killed at an MIC of 50 μM. As a control only DMSO was used. As the target cells express GFP embedded into its chromosome, the GFP fluorescence (B) along with the absorbance (growth) (A) was monitored in this experiment.
as §1

[7] = tested on: E. coli wt; assay: Microbroth dilution assay of purified Microcin S on E. coli; type: cell-based, Escherichia coli
Description: (§2) In addition, the Microcin S peptide was purified to test its efficacy on V. cholerae and E. coli. […] Subsequently, the cells were pelleted by centrifugation at 4000 g for 20 min and lysed using a sonicator. Purification of Microcin S was carried out using Qiagen Ni-NTA fast start kit. The eluate was dialysed using Slide-A-Lyzer dialysis cassette and a 2 KDa cutoff (Life Technologies) for 4 hrs in 1×PBS. The dialysed samples were concentrated by ultra filtration using a molecular mass cutoff membrane (Amicon Ultra-15 Centrifugal Filter Unit, Millipore). As the estimated size of the protein is approximately 12 kDa, the first concentration was done using a 30 kDa cutoff membrane where the flow-through was collected and subsequently passed through a 3 kDa cutoff membrane. The resulting retentate was collected and the concentration was quantified using Quant-IT protein assay kit (Life Technologies).
(§3) The induced sample expressed has Microcin S (FIG. 13B) and the fluorescence reading from the Quant-it assay was 1135, which was close to a concentration of 200 ng/μl, calculated from the standard curve (FIG. 13A). […] After the presence of Microcin S was confirmed from the purified sample, a microbroth dilution assay was carried out to measure the minimum inhibitory concentration of purified Microcin S on V. cholerae and E. coli. […]

[8] = tested on: V. cholerae; assay: Microbroth dilution assay of purified Microcin S on V. cholerae; type: cell-based, Vibrio cholerae
Description: as §2, §3

[9] = expression induced with 0.125% L-arabinose (pBAD), vs un-induced

With `CCCCCCCCCC(=O)[C@@H](O)CC` [CAI-1, (S)-3-hydroxytridecan-4-one] the “GFP expression on addition of CAI-1” value [1] was “a drop in the GFP expression was observed”.

For CM15 (KWKLFKKIGAVLKVL-NH2), the “activity against V. cholerae” value [2] is given as “show inhibitory activity”.

For G12.21 (RRVSRRPMRRYRSRRPRRLV), the “activity against V. cholerae” value [2] is given as “effectively control the growth of V. cholerae both in vitro and in vivo”.

For G14.15 (GRSRWRRVSRRFMRR), the “activity against V. cholerae” value [2] is given as “effectively control the growth of V. cholerae both in vitro and in vivo”.

With “Lysis E7 (MKKITGIILLLLAAIILAACQANYIRDVQGGTVSPSSTAELTGVETQ; Secretory peptide)” the “time to lyse E. coli” value ([3]; 200 nM atc) was ≤ 4 h and the “OD600 of host cell after induction (lysis)” value ([3]; pBbA2C+E7, 200 nM anhydrotetracycline, vs un-induced) was “reduced significantly due to the lysis”.

For “Magainin 2 (GIGKFLHSAKKFGKAFVGEIMNS; listed as Xenopus laevis)”, the “activity against pathogenic E. coli” value [4] is given as “good killing efficiency” and the “activity against V. cholerae” value [2] is given as “good killing efficiency”.

With McsS-YebF the “growth (OD600) of host cell after induction” value (from here on “growth (OD600) of host cell”) [3, 9] was “complete growth inhibition”.

For WKLFKKILKVL-NH2 [CM11], the MIC [5] was 25 µM, the “growth (OD600) of host cell” value ([3]; pBbE8K+P3, induced with 0.2% L-arabinose, vs un-induced, listed as CM11 (P3)) was “reduces the growth of E. coli” and the “growth (OD600) of host cell” value ([3]; pBbE8K+P3, induced with 0.2% L-arabinose, vs un-induced, listed as P3) was “reduced significantly”. For the same molecule, the MIC [6] was 50 µM and the “activity against V. cholerae” value [2] was “show inhibitory activity”.

B1: Microcin S (protein, listed as Escherichia coli)
chain: MSNIRELSFDEIALVSGGNANSNYEGGGSRSRNTGARNSLGRNAPTHIYSDPSTVKCANAVFSGMVGGAIKGGPVGMTRGTIGGAVIGQCLSGGGNGNGGGNRAGSSNCSGSNVGGTCSR
With B1 the “growth (OD600) of host cell” value [3, 9] was “reduced OD600 readings”, the “growth (OD600) of host cell” value ([3]; expression induced with 0.125% L-arabinose (pBAD), vs un-induced, listed as McsS) was “complete growth inhibition” and the inhibitory activity [7] was “has inhibitory activity”. For the same molecule, the Minimal inhibition concentration ([7]; LB broth, 4 hrs, OD) was 100 µg/mL, the inhibitory activity [8] was “has inhibitory activity” and the Minimal inhibition concentration ([8]; LB broth, 4 hrs, OD) was 100 µg/mL.
